Read-outs that look alike come from different tables or passages of the source.
Experiments:
HIV-1 strain 92HT599 = assay: Antiviral activity: p24 estimation in MT2 cells infected with HIV-1 strain 92HT599; format: cell-based; conditions: Human immunodeficiency virus 1, MT2 cells, HIV-1 92HT599, ~96 hours, p24; for inhibition at 0.1 µM: 100 nM, read-out: Antiviral activity % inhibition 100 nM; for inhibition at 1 µM: 1000 nM, read-out: Antiviral activity % inhibition 1000 nM
How it was run: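 Infection of MT2 cells used 10 TCID50/30000 cells, with compound present at ≤1% DMSO for ~96 h. p24 in well aliquots was quantified by kit. Percent inhibition is relative to vehicle controls.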

[1] = Single dose oral pharmacokinetic study in mice; format: in vivo; conditions: for AUC(0-inf) / Cmax / Tmax / AUC(0-t): mouse, plasma
Experimental: The test item was administered through oral route to animals (rat/mice) at 30 mg/kg dose in a suitable vehicle at 10 ml/kg dose volume. Blood samples (˜50 uL at each time point) were collected from retro-orbital plexus using K3 EDTA as anticoagulant in eppendorf tubes at defined time intervals under light ether anesthesia. The samples were centrifuged at 3500×g to separate plasma and stored at −80° C. until analysis.
Sample analysis: Test samples were analyzed using LC-MS-MS after developing fit-for-purpose method for each of test compound.

[2] = Cyto-toxicity assay (MTT) in MT2 cells without virus; format: cell-based; conditions: human
Experimental: For cyto-toxicity assay the same amount of MT2 cells as in antiviral assay without virus was added to the 96 well plates. The cyto-toxicity was measured using MTT reagent in parallel with p24 estimation. The percent viability is calculated in comparison with vehicle control.

[3] = Oral PK @ 30 mg/ kg dose in mice (Table 6)
[4] = Oral PK @ 30 mg/ kg dose in mice (Table 6), read-out: AUCt
[5] = Mice oral PK @30 mg/kg (Table 5)
[6] = Mice oral PK @30 mg/kg (Table 5), read-out: AUC 0-t

| Compound | inhibition at 0.1 µM (HIV-1 strain 92HT599) [%] | inhibition at 1 µM (HIV-1 strain 92HT599) [%] | Tlast [1, 3] [h] | AUC(0-inf) [1, 3] [µg·h/mL] | Cmax [1, 3] [ng/mL] | Tmax [1, 3] [h] | AUC(0-t) [1, 4] [µg·h/mL] | viability at 100 nM [2] [%] | viability at 1000 nM [2] [%] | Cmax [1, 5] [ng/mL] | Tmax [1, 5] [h] | AUC(0-t) [1, 6] [µg·h/mL] |
| --- | --- | --- | --- | --- | --- | --- | --- | --- | --- | --- | --- | --- |
| CC1([C@@H]2CC[C@]3(C(=O)N[C@@H]4C[C@H](C(=O)N5CCCCC5)C4(C)C)CC[C@]4(C)[C@H](CC[C@@H]5[C@@]6(C)CC[C@H](OC(=O)[C@H]7C[C@@H](C(=O)O)C7(C)C)C(C)(C)[C@@H]6CC[C@]54C)[C@@H]23)CC1 [Example 23, (1R,3S)-3-((((1R,3aS,5aR,5bR,7aR,9S,11aR,11bR,13aR,13bR)-3a-(((1R,3S)-2,2-dimethyl-3-(piperidine-1-carbonyl)cyclobutyl)carbamoyl)-5a,5b,8,8,11a-pentamethyl-1-(1-methylcyclopropyl)icosahydro-1H-cyclopenta[a]chrysen-9-yl)oxy)carbonyl)-2,2-dimethylcyclobutane-1-carboxylic acid] | 100 | 100 | 48 | 628 | 11000 | 4.5 | 324 | 100 | 93 | – | – | – |
| CC(C)(CC(=O)O[C@H]1CC[C@]2(C)[C@H]3CC[C@@H]4[C@H]5[C@H](C6(C)CC6)CC[C@]5(C(=O)N5CCN(CCN6CCOCC6)CC5)CC[C@@]4(C)[C@]3(C)CC[C@H]2C1(C)C)C(=O)O [Example 31, 2,2-dimethyl-4-oxo-4-(((1R,3aS,5aR,5bR,7aR,9S,11aR,11bR,13aR,13bR)-5a,5b,8,8,11a-pentamethyl-1-(1-methylcyclopropyl)-3a-(4-(2-morpholinoethyl)piperazine-1-carbonyl)icosahydro-1H-cyclopenta[a]chrysen-9-yl)oxy)butanoic acid] | 99 | 99 | 48 | 240 | 9200 | 6.5 | 214 | 100 | 95 | – | – | – |
| Cc1nnc([C@H]2C[C@@H](NC(=O)[C@]34CC[C@@H](C5(C)CC5)[C@@H]3[C@H]3CC[C@@H]5[C@@]6(C)CC[C@H](OC(=O)[C@H]7C[C@@H](C(=O)O)C7(C)C)C(C)(C)[C@@H]6CC[C@@]5(C)[C@]3(C)CC4)C2(C)C)o1 [Example 17, (1R,3S)-3-(((1R,3aS,5aR,5bR,7aR,9S,11aR,11bR,13aR,13bR)-3a-((1R,3S)-2,2-dimethyl-3-(5-methyl-1,3,4-oxadiazol-2-yl)cyclobutylcarbamoyl)-5a,5b,8,8,11a-pentamethyl-1-(1-methylcyclopropyl)icosahydro-1H-cyclopenta[a]chrysen-9-yloxy)carbonyl)-2,2-dimethyl cyclobutanecarboxylicacid] | 100 | 100 | – | – | – | – | – | 77 | 89 | 5940 | 4.5 | 88.3 |
| [2H]C([2H])([2H])C(CC(=O)O[C@H]1CC[C@]2(C)[C@H]3CC[C@@H]4[C@H]5[C@H](C6(C)CC6)CC[C@]5(C(=O)N[C@@H]5C[C@H](C(=O)N6CCCCC6)C5(C)C)CC[C@@]4(C)[C@]3(C)CC[C@H]2C1(C)C)(C(=O)O)C([2H])([2H])[2H] [Example 22, 4-(((1R,3aS,5aR,5bR,7aR,9S,11aR,11bR,13aR,13bR)-3a-(((1R,3S)-2,2-dimethyl-3-(piperidine-1-carbonyl)cyclobutyl)carbamoyl)-5a,5b,8,8,11a-pentamethyl-1-(1-methylcyclopropyl)icosahydro-1H-cyclopenta[a]chrysen-9-yl)oxy)-2,2-bis(methyl-d3)-4-oxobutanoic acid] | 100 | 100 | 24 | 79 | 10200 | 1.8 | 63.9 | 100 | 87 | – | – | – |
| CC(C)(CC(=O)O[C@H]1CC[C@]2(C)[C@H]3CC[C@@H]4[C@H]5[C@H]([C@@](C)(O)CO)CC[C@]5(C(=O)N[C@@H]5C[C@H](C(=O)N6CCCCC6)C5(C)C)CC[C@@]4(C)[C@]3(C)CC[C@H]2C1(C)C)C(=O)O [Example 15, 4-((1R,3aS,5aR,5bR,7aR,9S,11aR,11bR,13aR,13bS)-1-(1,2-dihydroxypropan-2-yl)-3a-((1R,3S)-2,2-dimethyl-3-(piperidine-1-carbonyl)cyclobutylcarbamoyl)-5a,5b,8,8,11a-pentamethylicosahydro-1H-cyclopenta[a]chrysen-9-yloxy)-2,2-dimethyl-4-oxobutanoicacid] | 93 | 97 | – | – | – | – | – | 95 | 95 | 3780 | 0.63 | 31.4 |
| [2H]C([2H])([2H])C(CC(=O)O[C@H]1CC[C@]2(C)[C@H]3CC[C@@H]4[C@H]5[C@H](C(=C)C)CC[C@]5(C(=O)N5CCN(CC)CC5)CC[C@@]4(C)[C@]3(C)CC[C@H]2C1(C)C)(C(=O)O)C([2H])([2H])[2H] [Example 25, 4-(((1R,3aS,5aR,5bR,7aR,9S,11aR,11bR,13aR,13bR)-3a-(4-ethylpiperazine-1-carbonyl)-5a,5b,8,8,11a-pentamethyl-1-(prop-1-en-2-yl)icosahydro-1H-cyclopenta[a]chrysen-9-yl)oxy)-2,2-bis(methyl-d3)-4-oxobutanoic acid] | 100 | 100 | 48 | 122 | 6200 | 4.5 | 108 | 100 | 84 | – | – | – |
| COCCOCCN1CCN(C(=O)[C@]23CC[C@@H](C4(C)CC4)[C@@H]2[C@H]2CC[C@@H]4[C@@]5(C)CC[C@H](OC(=O)CC(C)(C)C(=O)O)C(C)(C)[C@@H]5CC[C@@]4(C)[C@]2(C)CC3)CC1 [Example 39, 4-(((1R,3aS,5aR,5bR,7aR,9S,11aR,11bR,13aR,13bR)-3a-(4-(2-(2-methoxyethoxyl)ethyl)piperazine-1-carbonyl)-5a,5b,8,8,11a-pentamethyl-1-(1-methylcyclopropyl)icosahydro-1H-cyclopenta[a]chrysen-9-yl)oxy)-2,2-dimethyl-4-oxobutanoic acid] | 97 | 99 | 48 | 119 | 7000 | 4 | 111 | 83 | 88 | – | – | – |
| [2H]C([2H])([2H])C(CC(=O)O[C@H]1CC[C@]2(C)[C@H]3CC[C@@H]4[C@H]5[C@H](C6(C)CC6)CC[C@]5(C(=O)N5CCN(CC)CC5)CC[C@@]4(C)[C@]3(C)CC[C@H]2C1(C)C)(C(=O)O)C([2H])([2H])[2H] [Example 30] | 97 | 99 | 48 | 78.5 | 4700 | 3.5 | 67.1 | 83 | 82 | – | – | – |
